These results are taken from the METLIN SMRT retention time set (Domingo-Almenara et al. 2019).

Each structure is given as a SMILES string.

A short description of the data set: gradient 5% acetonitrile 3 min, to 50% in 2 min, to 85% in 15 min, held 3 min, 100 µL/min. As to conditions: column: Zorbax Extend-C18 2.1 x 50 mm; eluents: water / acetonitrile, 0.1% formic acid. The procedure, abridged:
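Using water and acetonitrile that each contained 0.1% formic acid, mixtures of ~100 pure standards were separated at 100 μL/min on a Zorbax Extend-C18 column (2.1 × 50 mm, 1.8 μm). The HPLC fed a quadrupole time-of-flight mass spectrometer working in positive and negative ionization mode, with dead and dwell volumes of 40 μL and 900 μL. Data were acquired over 3 months. Retention time was read from computationally picked adduct peaks after manual inspection of each.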
As for `Cn1c(N2CCCC(C(=O)Nc3nccs3)C2)cc(=O)n(C)c1=O` (centres undefined), the RP-LC retention time was 634 s.
The result for `COc1ccc(OCc2nnc3sc(-c4ccc(OC)cc4OC)nn23)cc1` reads 989 s; that for `COc1ccc(N2CC(c3nc(-c4ccc(Cl)cc4)no3)CC2=O)c(OC)c1` (centres undefined), 1000 s; that for `CCCN1C(=O)c2c(C(=O)NCc3ccccc3F)ncn2CC1(C)C(=O)NC1CCCC1` (centres undefined), 787 s.
For `COc1ccc(C(=O)NCCc2nc3cccnc3n2C(C)C)cc1`, the RP-LC retention time was found to be 649 s.
`CCn1c(=O)c(NCc2ccccc2Cl)nc2ccncc21` returned an RP-LC retention time of 659 s.
On to `CC1=NS(=O)(=O)N(C)C=C1C(=O)OCc1cc(F)cc(F)c1`, for which the RP-LC retention time was determined as 934 s.
Compound `O=S(=O)(Cc1cccc(Cl)c1)NCCc1noc(-c2ccccc2)n1` came in with an RP-LC retention time of 971 s.
The result for `COc1cc2c(cc1OC)C1C(C(=O)N3CCN(c4ccccn4)CC3)c3ccccc3C(=O)N1CC2` (centres undefined) reads 606 s; that for `Cc1ccc(Nc2c(-c3cccc(Cl)c3)nc3cc(C)ccn23)cc1`, 890 s.
Take `Cc1nn(CC(=O)NC(C)(C)C)c(=O)c2c(C)n(-c3ccccc3)nc12`: the RP-LC retention time is 768 s.
The result for `COC(=O)c1cnc2nc(C)ccc2c1Nc1ccc(Cl)cc1C` reads 721 s; that for `O=C(Cn1nc2c3cc(-c4ccccc4)nn3ccn2c1=O)Nc1cccc(Br)c1`, 952 s.
In turn, `CCNC(=O)CN1C(=O)CCCc2cc(S(=O)(=O)N3CCC(C)CC3)ccc21` gave an RP-LC retention time of 769 s.
To `CCOc1cccc(-c2noc(Cn3cnc4c(cnn4-c4cc(Cl)ccc4C)c3=O)n2)c1` belongs 1230 s.
To `COc1ccc(-c2noc(C3CC(=O)N(c4cccc(Cl)c4)C3)n2)c(OC)c1` (centres undefined) belongs 878 s; to `O=S(=O)(c1ccc(Cl)cc1)N1CCc2nc(-c3ccc(Cl)cc3)ncc2C1`, 1270 s.
To `O=C(NC1CCCCC1N1C(=O)CSC1=O)c1cc(-c2ccc(F)cc2)n[nH]1` (centres undefined) belongs 762 s; to `Cc1cccc(NC(=O)C2CCCN(c3ccc(=O)n(-c4cccc(Cl)c4)n3)C2)c1C` (centres undefined), 960 s; to `O=C(Nc1ccc(F)cc1)Oc1ccc[nH]c1=O`, 684 s.
As for `COc1ccc(C(=O)N2CCCCC2c2nncn2C)cn1` (centres undefined), the RP-LC retention time was determined as 603 s.
The result for `O=C(COc1ccc(F)cc1)NCC1(O)CCCC1` reads 667 s; that for `Cc1ccc(Nc2c(-c3ccc([N+](=O)[O-])cc3)nc3ccc(Cl)cn23)cc1`, 1100 s; that for `Clc1ccccc1-c1nnc2sc(-c3ccc4ccccc4n3)nn12`, 1150 s.
The result for `CC(=O)O[C@H]1Cc2ccccc2N(C(N)=O)c2ccccc21` reads 782 s.
To `O=C(CCc1c[nH]c2ccccc12)N1CCc2cc(-c3ccno3)ccc21` belongs 984 s.
`COc1cccc(NC(=O)N2CCCC2c2nc(-c3ccccc3OC)no2)c1` (centres undefined) gave an RP-LC retention time of 843 s.
The compound `CN(C)C(=O)CN1CCN(c2cc(C(=O)O)c3cc(NC(=O)c4ccc(F)cc4)ccc3n2)CC1` registered an RP-LC retention time of 579 s.
To `Cn1nc(C(=O)N2C[C@@H](Oc3ccccc3)C[C@H]2C(=O)NC2CC2)c2ccccc21` belongs 802 s; to `CS(=O)(=O)N1CCCN(C(=O)c2ccccc2)CC1`, 638 s; to `O=C(Nc1nnc(C2CC(=O)N(c3ccccc3)C2)o1)c1ccc(Br)cc1` (centres undefined), 766 s.
Take `O=C(c1ccc(Br)o1)N1CCC2(CC1)OCCS2`: the RP-LC retention time came to 771 s.
The result for `Cn1c(=O)n(C)c2cc(N3CCCCC3)c(NC(=O)c3cccs3)cc21` reads 890 s.
With `COCCNC(=O)c1sc2ncn(CC(=O)N3CCCCC3C)c(=O)c2c1C` (centres undefined), the RP-LC retention time stood at 679 s.
To `Cc1c(Cl)cccc1NC(=O)NC1CCN(c2cc(N3CCCC3)cnn2)C1` (centres undefined) belongs 668 s; to `O=C(NCCn1ncccc1=O)c1c(F)cccc1F`, 584 s.
To `Oc1ccc(-c2csc(Nc3ccccn3)n2)cc1` belongs 646 s; to `COc1cccc(S(=O)(=O)N2CCC(CN3CCCCCC3)CC2)c1`, 642 s; to `CC1CCN(c2cc(-n3cnc(C(=O)N4CCc5ccccc5C4)c3)ncn2)CC1`, 1060 s.
To `Cc1ccnc(Nc2nc(C)c(C(=O)N3CCC(C)CC3)s2)c1` belongs 779 s; to `COc1ccc(-c2nc(C3CC(=O)N(c4ccc(C)cc4)C3)no2)c(C)c1` (centres undefined), 1090 s.
Take `CCC(=O)Nc1ccc(CCc2nc3ccc(C(=O)NC(c4cccs4)C(C)C)cc3[nH]2)cc1` (centres undefined): the RP-LC retention time came out at 702 s.
The result for `Cc1noc(C)c1-c1ccc(S(=O)(=O)Nc2ccc(C(F)(F)F)cc2)cc1` reads 1020 s.
To `COc1ccc(NC(=O)c2ccc3ncsc3c2)c([N+](=O)[O-])c1` belongs 800 s; to `CC(=O)N1CCCN(C2=NS(=O)(=O)C(c3ccc(Cl)cc3)=C2C)CC1`, 718 s.
The result for `CCCOc1nc2ccccc2nc1N1CCCC(C(=O)Nc2ccccc2OC)C1` (centres undefined) reads 1320 s; that for `Cc1ccc(CNC(=O)c2ncn3c2C(=O)N(C2CC2)C(C)(C(=O)NCc2ccc(C)cc2)C3)cc1` (centres undefined), 832 s; that for `Cn1ccc2cc(S(=O)(=O)N3CCCC(C(=O)NCCC4=CCCCC4)C3)ccc21` (centres undefined), 1040 s.
As to `O=C(NCc1cccc(Cl)c1)c1ccc2c(c1)ncn2CCN1CCCC1`, the RP-LC retention time stood at 601 s.
The result for `CCOC(=O)c1cnc(N2CCN(c3ccccc3F)CC2)[nH]c1=O` reads 908 s.
Consider `O=C(c1ccc(OCC2CCCN2C(=O)c2ccc(F)cc2F)cc1)N1CCOCC1` (centres undefined), for which the RP-LC retention time came out at 723 s.
Compound `CC1CCN(c2nc(C(=O)N3CCN(c4ccccc4)CC3)nc3c2cnn3C)CC1` displayed an RP-LC retention time of 956 s.
As to `Cc1ccc(-c2nc(C3CC(=O)N(c4ccc(F)c(Cl)c4)C3)no2)cc1` (centres undefined), the RP-LC retention time stood at 1160 s.
To `COc1ccc(N2CCN(S(=O)(=O)c3cc(-c4cc(C(F)(F)F)[nH]n4)sc3C)CC2)cc1` belongs 1090 s; to `O=C(NCc1ccncc1)C1CCN(c2ncnc3c2oc2ccccc23)CC1`, 593 s; to `CSc1ccc(CNC(=O)c2ccc3nc(CCc4ccc(NC(C)=O)cc4)[nH]c3c2)cc1`, 663 s.
The compound `Cc1ncc2c(n1)C[C@@H]1CC[C@H]2N1C(=O)Nc1ccccc1F` yielded an RP-LC retention time of 638 s.
The compound `O=C(N[C@@H]1CN(c2ncccn2)C[C@H]1CO)c1ccc(F)cn1` displayed an RP-LC retention time of 595 s.
`O=C(Cc1cccs1)Nc1cccc(OCc2nnc(-c3ccccc3)o2)c1` gave an RP-LC retention time of 905 s.
